{"source": "patent US10632106B2", "about": "“Methods of cancer treatment with 2-(1′H-Indole-3′-carbonyl)-thiazole-4-carboxylic acid methyl ester” (Ariagen, Inc., priority 2009, dated 2020)", "format_in_all_cases": "in vivo", "key": {"[1]": {"tested_on": "human liver cancer cell line HepG2 xenografts", "assay": "HepG2 xenograft growth inhibition in nude mice", "details": "80 mg/kg i.p. once daily", "experimental": "(§1) All the procedures related to animal handling, care, and the treatment in the study were performed following guidelines approved by an Institutional Animal Care and Use Committee (IACUC) of Crown Bioscience, Inc. (Santa Clara, Calif., USA, a contract research organization we hired) based on the guidance of the Association for Assessment and Accreditation of Laboratory Animal Care (AAALAC). Animals were checked for any effects of tumor growth and drug treatment on normal behavior such as mobility, food and water consumption, body weight gain/loss (gross body weights were measured twice weekly), eye/hair matting, and any other abnormal effect. Death and observed clinical signs were recorded on the basis of the number of animals within each group. Individual animals with a tumor volume exceeding 3,000 mm^3 or animals of a group with a mean tumor volume exceeding 2,000 mm^3 were euthanized. In addition, animals showing signs of severe distress and/or pain, dropping body weight more than 20% from that at the start of treatment, or losing the capability of accessing adequate food or water were humanely sacrificed.\nEach mouse was inoculated subcutaneously at the right flank with the LNCaP cells (1×10^7) in 0.1 ml of PBS for tumor development. When a mean tumor volume reached around 150 mm^3, the tumor-bearing mice were divided into homogeneous blocks based on their tumor volumes followed by a randomization of mice in each block into treatment groups (thus minimizing variations in tumor response to treatments due to the differential in initial mean tumor volumes). Each treatment group was consisted of 8 tumor-bearing mice. Vehicle (DMSO) or ITE in the vehicle at specified doses were administered to the mice by either i.p. (intraperitoneal) or p.o. (oral) injection once or twice daily for 28 continuous days as indicated.\n(§2) Tumor volume was measured twice weekly in two dimensions using a caliper and the volume was calculated with a formula of: V=0.5 a×b^2, where a and b are the long and short diameter (in mm) of a tumor, respectively. The tumor volume was then used for calculations of both TGI (Tumor Growth Inhibition) and TGD (Tumor Growth Delay). The TGI was determined by: TGI=ΔT/ΔC×100%, where ΔT was a difference between the mean tumor volume at a specified day of observation and that at the day treatment starts (day 1) for a drug treated group whereas ΔC was the same difference measured for the control group. The TGD was calculated as: TGD=T−C, where T was the time (in days) required for tumors in a drug treated group to reach a predetermined mean tumor volume and C the time (in days) in the control group to reach the same volume. A tumor weight was derived by equating 1,000 mm^3 in volume to 1,000 mg in weight. A net body weight was then derived by subtracting a tumor weight from a corresponding gross body weight with the tumor.\n(§3) Summary statistics, including mean and the standard error of the mean (SEM), are provided for the tumor volume of each group at each time point. Statistical analysis of difference in tumor volume among groups was conducted on a data set either at the best therapeutic time point or at the final dosing day as indicated. The tumor volume data were log-transformed and evaluated using a one-way ANOVA followed by Tukey's test when significance was observed. All data were analyzed using SPSS 16.0 and p<0.05 was considered to be statistically significant.\nThe culture and inoculation of human prostate cancer cell line LNCaP were as described in Example 1. The manipulation for human liver cancer cell line HepG2 (ATCC) was similar as that for LNCaP except that DMEM (instead of RPMI-1640) medium was used, the L-glutamine was not used, and 2×10^6 cells were used for inoculation into female nude mice. The handling of human ovarian cancer cell line OVCAR-3 (ATCC) was the same as that of LNCaP except that the DMEM medium was used and 5×10^6 cells were used for inoculation into female nude mice. […]"}, "[2]": {"assay": "Mouse cancer model studies of Example 5, all models: animal death", "details": "any model, entire therapies; with oral gavage of 20 ml/kg water", "experimental": "All the procedures related to animal handling, care, and the treatment in the study were performed following guidelines of KeyGen Biotechn Co., Ltd. (Nanjing, China), a contract research organization we hired, based on the guidance of the Association for Assessment and Accreditation of Laboratory Animal Care (AAALAC). Animals were checked for any effects of tumor growth and drug treatment on normal behavior such as mobility, food and water consumption, body weight gain/loss (bodyweights were measured every two days), eye/hair matting, and any other abnormal effect. Death and observed clinical signs were recorded. Individual animals with a tumor volume exceeding 3,000 mm^3 or animals of a group with a mean tumor volume exceeding 2,000 mm^3 were euthanized. In addition, animals showing signs of severe distress and/or pain or losing the capability of accessing adequate food or water were humanely sacrificed.\nEach mouse was inoculated subcutaneously in right armpit with about 1×10^6 cells in 0.1 ml of PBS for tumor development. While cells of human in origin were inoculated into female BALB/c nude mice, MFC cells were inoculated into female 615 mice and U14 and 5180 cells into female ICR mice. When a mean tumor volume reached 50 to 150 mm^3 as indicated, the tumor-bearing mice were divided randomly into vehicle control and ITE treatment group. […]"}, "[3]": {"tested_on": "Murine Lewis lung cancer cell line LLC tumors", "assay": "Syngeneic murine Lewis lung cancer (LLC) model in C57BL/6 mice", "details": "for TGI (Tumor Growth Inhibition): TGI=ΔT/ΔC×100%", "experimental": "as §1, §2, §3\nMurine Lewis lung cancer cell line LLC (ATCC) was cultured as described for LNCaP in Example 1 except DMEM, instead of RPMI-1640, medium being used. Each female C57BL/6 mice, 6 to 8 weeks of age, was inoculated with 3×10^5 LLC cells in 0.1 ml of PBS for tumor development. ITE treatment was started when a mean tumor volume reached 80 to 120 mm^3. All the other materials and methodologies were the same as that described in Example 1."}}, "data": [{"compound": "COC(=O)c1csc(C(=O)c2c[nH]c3ccccc23)n1", "note": "[ITE, 2-(1′H-indole-3′-carbonyl)-thiazole-4-carboxylic acid methyl ester]", "values": [{"measurement": "net body weight loss", "setting": "[1]", "result": "no obvious net body weight loss"}, {"measurement": "TGD (Tumor Growth Delay)", "setting": "[1]; at a tumor volume of 800 mm^3", "result": 29, "unit": "days"}, {"measurement": "TGI (Tumor Growth Inhibition)", "setting": "[1]; day 22, TGI=ΔT/ΔC×100%", "result": 25, "unit": "%"}, {"measurement": "animal death in ITE treatment group", "setting": "[2]", "result": "no single animal death"}, {"measurement": "TGI (Tumor Growth Inhibition)", "setting": "[3]; 20 mg/kg b.w. i.p. once daily, day 15", "result": 65, "unit": "%"}, {"measurement": "tolerability by body weight change monitoring", "setting": "[3]; 80 mg/kg b.w. i.p. once daily", "result": "tolerated well"}, {"measurement": "tumor elimination in one mouse of the ITE group (mouse No. 33)", "setting": "[3]; 80 mg/kg b.w. i.p. once daily for 28 days, stayed tumor free for one more month of observation", "result": "its tumor was no longer palpable at day 13"}, {"measurement": "TGD (Tumor Growth Delay)", "setting": "[3]; 80 mg/kg b.w. i.p. once daily, at a tumor volume of 1000 mm^3", "result": 7, "unit": "days"}, {"measurement": "TGI (Tumor Growth Inhibition)", "setting": "[3]; 80 mg/kg b.w. i.p. once daily, day 20", "result": 42, "unit": "%"}]}]}
